Test results taken from patent publication US4479943A, “3-Demethoxyistamycin B, the 2"-N-formimidoyl derivative thereof and pharmaceutical composition containing same” (Zaidan Hojin Biseibutsu Kagaku Kenkyu Kai, priority 1982, dated 1984).
In brackets after ≈: the same amount, converted by molar mass.

Legend:
[1] = test system: Escherichia coli K-12 ML1410; experiment: Antibacterial MIC, standard serial dilution; type: cell-based; settings: nutrient agar, 37° C., 17 hours, as free base
[2] = test system: Bacillus cereus ATCC 10702; experiment: Antibacterial MIC, standard serial dilution; type: cell-based; settings: nutrient agar, 37° C., 17 hours, as free base
Escherichia coli JR225 = experiment: Antibacterial MIC, standard serial dilution; type: cell-based; settings: nutrient agar, 37° C., 17 hours, as free base
[3] = test system: Salmonella enteritidis 1891; experiment: Antibacterial MIC, standard serial dilution; type: cell-based; settings: nutrient agar, 37° C., 17 hours, as free base
[4] = test system: Pseudomonas aeruginosa H9; experiment: Antibacterial MIC, standard serial dilution; type: cell-based; settings: nutrient agar, 37° C., 17 hours, as free base
[5] = test system: Staphylococcus aureus Smith; experiment: Antibacterial MIC, standard serial dilution; type: cell-based; settings: nutrient agar, 37° C., 17 hours, as free base
[6] = test system: Pseudomonas maltophilia GN 907; experiment: Antibacterial MIC, standard serial dilution; type: cell-based; settings: nutrient agar, 37° C., 17 hours, as free base
[7] = test system: Escherichia coli K-12 ML1629; experiment: Antibacterial MIC, standard serial dilution; type: cell-based; settings: nutrient agar, 37° C., 17 hours, as free base
Providencia sp. 2991 = experiment: Antibacterial MIC, standard serial dilution; type: cell-based; settings: nutrient agar, 37° C., 17 hours, as free base
[8] = test system: Corynebacterium bovis 1810; experiment: Antibacterial MIC, standard serial dilution; type: cell-based; settings: nutrient agar, 37° C., 17 hours, as free base
Serratia marcescens = experiment: Antibacterial MIC, standard serial dilution; type: cell-based; settings: nutrient agar, 37° C., 17 hours, as free base
Proteus rettgeri GN466 = experiment: Antibacterial MIC, standard serial dilution; type: cell-based; settings: nutrient agar, 37° C., 17 hours, as free base
Proteus vulgaris 0X19 = experiment: Antibacterial MIC, standard serial dilution; type: cell-based; settings: nutrient agar, 37° C., 17 hours, as free base
Escherichia coli W677 = experiment: Antibacterial MIC, standard serial dilution; type: cell-based; settings: nutrient agar, 37° C., 17 hours, as free base
[9] = test system: Pseudomonas aeruginosa 99; experiment: Antibacterial MIC, standard serial dilution; type: cell-based; settings: nutrient agar, 37° C., 17 hours, as free base
[10] = test system: Escherichia coli K-12 LA290 R56; experiment: Antibacterial MIC, standard serial dilution; type: cell-based; settings: nutrient agar, 37° C., 17 hours, as free base
[11] = test system: Bacillus subtilis PCI 219; experiment: Antibacterial MIC, standard serial dilution; type: cell-based; settings: nutrient agar, 37° C., 17 hours, as free base
[12] = test system: Escherichia coli K-12 R388; experiment: Antibacterial MIC, standard serial dilution; type: cell-based; settings: nutrient agar, 37° C., 17 hours, as free base
Escherichia coli NIHJ = experiment: Antibacterial MIC, standard serial dilution; type: cell-based; settings: nutrient agar, 37° C., 17 hours, as free base
Proteus rettgeri GN311 = experiment: Antibacterial MIC, standard serial dilution; type: cell-based; settings: nutrient agar, 37° C., 17 hours, as free base
[13] = test system: Staphylococcus epidermidis 109; experiment: Antibacterial MIC, standard serial dilution; type: cell-based; settings: nutrient agar, 37° C., 17 hours, as free base
[14] = test system: Staphylococcus aureus Ap01; experiment: Antibacterial MIC, standard serial dilution; type: cell-based; settings: nutrient agar, 37° C., 17 hours, as free base
[15] = test system: Pseudomonas aeruginosa No. 12; experiment: Antibacterial MIC, standard serial dilution; type: cell-based; settings: nutrient agar, 37° C., 17 hours, as free base
[16] = test system: Pseudomonas aeruginosa 21-75; experiment: Antibacterial MIC, standard serial dilution; type: cell-based; settings: nutrient agar, 37° C., 17 hours, as free base
[17] = test system: Micrococcus flavus FDA 16; experiment: Antibacterial MIC, standard serial dilution; type: cell-based; settings: nutrient agar, 37° C., 17 hours, as free base
Providencia sp. Pv16 = experiment: Antibacterial MIC, standard serial dilution; type: cell-based; settings: nutrient agar, 37° C., 17 hours, as free base
[18] = test system: Pseudomonas aeruginosa PST1; experiment: Antibacterial MIC, standard serial dilution; type: cell-based; settings: nutrient agar, 37° C., 17 hours, as free base
[19] = test system: Klebsiella pneumoniae PCI602; experiment: Antibacterial MIC, standard serial dilution; type: cell-based; settings: nutrient agar, 37° C., 17 hours, as free base
[20] = test system: Pseudomonas aeruginosa A3; experiment: Antibacterial MIC, standard serial dilution; type: cell-based; settings: nutrient agar, 37° C., 17 hours, as free base
[21] = test system: Escherichia coli K-12 J5R11-2; experiment: Antibacterial MIC, standard serial dilution; type: cell-based; settings: nutrient agar, 37° C., 17 hours, as free base
[22] = test system: Escherichia coli K-12 LA290 R64; experiment: Antibacterial MIC, standard serial dilution; type: cell-based; settings: nutrient agar, 37° C., 17 hours, as free base
[23] = test system: Escherichia coli JR66/W677; experiment: Antibacterial MIC, standard serial dilution; type: cell-based; settings: nutrient agar, 37° C., 17 hours, as free base
[24] = test system: Pseudomonas aeruginosa TI-13; experiment: Antibacterial MIC, standard serial dilution; type: cell-based; settings: nutrient agar, 37° C., 17 hours, as free base
Salmonella typhi T-63 = experiment: Antibacterial MIC, standard serial dilution; type: cell-based; settings: nutrient agar, 37° C., 17 hours, as free base
[25] = test system: Staphylococcus aureus FDA 209P; experiment: Antibacterial MIC, standard serial dilution; type: cell-based; settings: nutrient agar, 37° C., 17 hours, as free base
[26] = test system: Pseudomonas aeruginosa GN315; experiment: Antibacterial MIC, standard serial dilution; type: cell-based; settings: nutrient agar, 37° C., 17 hours, as free base
[27] = test system: Escherichia coli K-12 ML1410 R81; experiment: Antibacterial MIC, standard serial dilution; type: cell-based; settings: nutrient agar, 37° C., 17 hours, as free base
[28] = test system: Klebsiella pneumoniae 22#3038; experiment: Antibacterial MIC, standard serial dilution; type: cell-based; settings: nutrient agar, 37° C., 17 hours, as free base
[29] = test system: Bacillus subtilis NRRL B-558; experiment: Antibacterial MIC, standard serial dilution; type: cell-based; settings: nutrient agar, 37° C., 17 hours, as free base
[30] = test system: Shigella dysenteriae JS11910; experiment: Antibacterial MIC, standard serial dilution; type: cell-based; settings: nutrient agar, 37° C., 17 hours, as free base
Serratia sp. 4 = experiment: Antibacterial MIC, standard serial dilution; type: cell-based; settings: nutrient agar, 37° C., 17 hours, as free base
Sarcina lutea PCI 1001 = experiment: Antibacterial MIC, standard serial dilution; type: cell-based; settings: nutrient agar, 37° C., 17 hours, as free base
[31] = test system: Pseudomonas aeruginosa ROS 134/PU21; experiment: Antibacterial MIC, standard serial dilution; type: cell-based; settings: nutrient agar, 37° C., 17 hours, as free base
mice = experiment: Acute toxicity, intravenous administration in mice; type: in vivo
Bacillus anthracis = type: cell-based; settings: nutrient agar, 37° C., 17 hours, as free base
[32] = test system: Pseudomonas aeruginosa H11; experiment: Antibacterial MIC, standard serial dilution; type: cell-based; settings: nutrient agar, 37° C., 17 hours, as free base
[33] = test system: gram-negative and gram-positive bacteria; experiment: Antibacterial activity overall (Table 1 spectrum); type: cell-based; settings: in words
[34] = test system: Pseudomonas aeruginosa K-Ps 102; experiment: Antibacterial MIC, standard serial dilution; type: cell-based; settings: nutrient agar, 37° C., 17 hours, as free base
[35] = test system: Pseudomonas aeruginosa B-13; experiment: Antibacterial MIC, standard serial dilution; type: cell-based; settings: nutrient agar, 37° C., 17 hours, as free base
Escherichia coli K-12 = experiment: Antibacterial MIC, standard serial dilution; type: cell-based; settings: nutrient agar, 37° C., 17 hours, as free base
[36] = test system: Escherichia coli K-12 C600 R135; experiment: Antibacterial MIC, standard serial dilution; type: cell-based; settings: nutrient agar, 37° C., 17 hours, as free base
Serratia sp. SOU = experiment: Antibacterial MIC, standard serial dilution; type: cell-based; settings: nutrient agar, 37° C., 17 hours, as free base
[37] = test system: Mycobacterium smegmatis ATCC 607; experiment: Antibacterial MIC, standard serial dilution; type: cell-based; settings: nutrient agar, 37° C., 17 hours, as free base
Pseudomonas aeruginosa = settings: in words; earlier filings; cited from earlier work

## CNCC1CCC(N)C(OC2C(N)CCC(N(C)C(=O)CN)C2O)O1 (stereo not shown) [DB, 3-demethoxyistamycin B]
[1]
  MIC: 1.56 µg/mL (≈ 4.34 µM)
[2]
  MIC: 1.56 µg/mL (≈ 4.34 µM)
Escherichia coli JR225
  MIC: 0.78 µg/mL (≈ 2.17 µM)
[3]
  MIC: 1.56 µg/mL (≈ 4.34 µM)
[4]
  MIC: 12.5 µg/mL (≈ 34.8 µM)
[5]
  MIC: 0.20 µg/mL (≈ 0.556 µM)
[6]
  MIC: 100 µg/mL (≈ 278 µM)
[7]
  MIC: 0.78 µg/mL (≈ 2.17 µM)
Providencia sp. 2991
  MIC: 1.56 µg/mL (≈ 4.34 µM)
[8]
  MIC: < 0.20 µg/mL
Serratia marcescens
  MIC: 0.78 µg/mL (≈ 2.17 µM)
Proteus rettgeri GN466
  MIC: 0.39 µg/mL (≈ 1.08 µM)
Proteus vulgaris 0X19
  MIC: 0.39 µg/mL (≈ 1.08 µM)
Escherichia coli W677
  MIC: 0.39 µg/mL (≈ 1.08 µM)
[9]
  MIC: 25 µg/mL (≈ 69.5 µM)
[10]
  MIC: 0.39 µg/mL (≈ 1.08 µM)
[11]
  MIC: < 0.20 µg/mL
[12]
  MIC: 0.39 µg/mL (≈ 1.08 µM)
Escherichia coli NIHJ
  MIC: 0.39 µg/mL (≈ 1.08 µM)
Proteus rettgeri GN311
  MIC: 0.39 µg/mL (≈ 1.08 µM)
[13]
  MIC: < 0.20 µg/mL
[14]
  MIC: 0.39 µg/mL (≈ 1.08 µM)
[15]
  MIC: 12.5 µg/mL (≈ 34.8 µM)
[16]
  MIC: 50 µg/mL (≈ 139 µM)
[17]
  MIC: 3.13 µg/mL (≈ 8.71 µM)
Providencia sp. Pv16
  MIC: 0.78 µg/mL (≈ 2.17 µM)
[18]
  MIC: 12.5 µg/mL (≈ 34.8 µM)
[19]
  MIC: 0.78 µg/mL (≈ 2.17 µM)
[20]
  MIC: 0.39 µg/mL (≈ 1.08 µM)
[21]
  MIC: 0.78 µg/mL (≈ 2.17 µM)
[22]
  MIC: 0.78 µg/mL (≈ 2.17 µM)
[23]
  MIC: 0.78 µg/mL (≈ 2.17 µM)
[24]
  MIC: 6.25 µg/mL (≈ 17.4 µM)
Salmonella typhi T-63
  MIC: < 0.20 µg/mL
[25]
  MIC: < 0.20 µg/mL
[26]
  MIC: 6.25 µg/mL (≈ 17.4 µM)
[27]
  MIC: 0.78 µg/mL (≈ 2.17 µM)
[28]
  MIC: 1.56 µg/mL (≈ 4.34 µM)
[29]
  MIC: < 0.20 µg/mL
[30]
  MIC: 1.56 µg/mL (≈ 4.34 µM)
Serratia sp. 4
  MIC: 12.5 µg/mL (≈ 34.8 µM)
Sarcina lutea PCI 1001
  MIC: < 0.20 µg/mL
[31]
  MIC: 50 µg/mL (≈ 139 µM)
mice; mice, intravenous, in words
  acute toxicity: low toxicity
mice; mouse, in vivo, iv, 336 h
  tolerated dose (all treated mice): 100 mg/kg
Bacillus anthracis
  MIC: 0.39 µg/mL (≈ 1.08 µM)
[32]
  MIC: 25.0 µg/mL (≈ 69.5 µM)
[33]
  antibacterial activity: the most active compound
[34]
  MIC: 12.5 µg/mL (≈ 34.8 µM)
[35]
  MIC: 50 µg/mL (≈ 139 µM)
Escherichia coli K-12
  MIC: 0.78 µg/mL (≈ 2.17 µM)
[36]
  MIC: 0.78 µg/mL (≈ 2.17 µM)
Serratia sp. SOU
  MIC: 3.13 µg/mL (≈ 8.71 µM)
[37]
  MIC: 0.39 µg/mL (≈ 1.08 µM)

## CN(C(=O)CN)C1C(O)CC(N)C(OC2OC(CN)CCC2N)C1O (stereo not shown) [di-N^6',O^3 -demethylistamycinA]
Pseudomonas aeruginosa
  antibacterial activity against Pseudomonas aeruginosa: significantly higher than the parent istamycin A
